Measurements: ChEMBL document CHEMBL1201862, “PubChem BioAssay data set” (2004)
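Growth conditions: 96-well plates. Treatment: test compound, 48 hours, 5 concentrations. Analysis: linear interpolation between bracketing concentrations; unreached endpoints set to highest concentration. GI50 = concentration required for 50% inhibition of growth.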 Calls of active or inactive are those of the source. Cut-off read from the data, not from the text of the source: active = GI50 up to about 1.1 µM and inactive = higher.

Columns and labels:
Experiment in all cases: DTP human tumour cell line panel, 48 h
HT-29 = test system: HT-29
SK-OV-3 = test system: SK-OV-3
SF-539 = test system: SF-539
HOP-62 = test system: HOP-62
UO-31 = test system: UO-31
HCC 2998 = test system: HCC 2998
NCI-H23 = test system: NCI-H23
NCI-H522 = test system: NCI-H522
EKVX = test system: EKVX
K562 = test system: K562
SK-MEL-5 = test system: SK-MEL-5
SW-620 = test system: SW-620
HL-60 = test system: HL-60
A549 = test system: A549
MDA-N = test system: MDA-N
IGROV-1 = test system: IGROV-1
OVCAR-3 = test system: OVCAR-3
SF-268 = test system: SF-268
NCI-H460 = test system: NCI-H460
Hs-578T = test system: Hs-578T

**Q.** What does the source list for Cc1nc(=O)[nH]c2c1C(=O)N(C(C)C)C(NC(C)C)S2 (configuration not stated)?
**A.** GI50 (HT-29): > 100 µM (inactive); GI50 (SK-OV-3): > 100 µM (inactive); GI50 (SF-539): > 100 µM (inactive); GI50 (HOP-62): > 100 µM (inactive); GI50 (UO-31): > 100 µM (inactive); GI50 (HCC 2998): > 100 µM (inactive); GI50 (NCI-H23): > 100 µM (inactive); GI50 (NCI-H522): 47.2 µM (inactive); GI50 (EKVX): > 100 µM (inactive); GI50 (K562): > 100 µM (inactive); GI50 (SK-MEL-5): > 100 µM (inactive); GI50 (SW-620): > 100 µM (inactive); GI50 (HL-60): > 100 µM (inactive); GI50 (A549): > 100 µM (inactive); GI50 (MDA-N): > 100 µM (inactive); GI50 (IGROV-1): > 100 µM (inactive); GI50 (OVCAR-3): 26.9 µM (inactive)

**Q.** How did the GI50 (HT-29) turn out when CCOC(=O)C(Br)(C(N)=O)C1(O)OC(c2ccccc2)=C(Br)C1=O (configuration not stated) was run?
**A.** 20.7 µM (inactive)

**Q.** What about the GI50 (SK-OV-3) of the same compound?
**A.** 66.1 µM (inactive)

**Q.** And the GI50 (SF-539)?
**A.** 18.2 µM (inactive)

**Q.** What about the GI50 (SF-268) of the same compound?
**A.** 22.2 µM (inactive)

**Q.** What about the GI50 (HOP-62) of the same compound?
**A.** 32.1 µM (inactive)

**Q.** What about the GI50 (UO-31) of the same compound?
**A.** 21.2 µM (inactive)

**Q.** And the GI50 (HCC 2998)?
**A.** 20 µM (inactive)

**Q.** And the GI50 (NCI-H23)?
**A.** 23.7 µM (inactive)

**Q.** And the GI50 (NCI-H522)?
**A.** 3.42 µM (inactive)

**Q.** And the GI50 (EKVX)?
**A.** 23.2 µM (inactive)

**Q.** And the GI50 (NCI-H460)?
**A.** > 100 µM (inactive)

**Q.** What about the GI50 (K562) of the same compound?
**A.** 22.4 µM (inactive)

**Q.** What about the GI50 (SK-MEL-5) of the same compound?
**A.** 22.6 µM (inactive)

**Q.** And the GI50 (Hs-578T)?
**A.** 50.7 µM (inactive)

**Q.** What about the GI50 (SW-620) of the same compound?
**A.** 20 µM (inactive)

**Q.** What about the GI50 (HL-60) of the same compound?
**A.** 38.5 µM (inactive)

**Q.** And the GI50 (A549)?
**A.** 26.2 µM (inactive)

**Q.** And the GI50 (IGROV-1)?
**A.** 20.5 µM (inactive)

**Q.** What about the GI50 (OVCAR-3) of the same compound?
**A.** 25.8 µM (inactive)

**Q.** Which results are given for CCN(CCC#N)C(=O)Nc1ccccc1?
**A.** GI50 (HT-29): > 100 µM (inactive); GI50 (SK-OV-3): > 100 µM (inactive); GI50 (SF-539): > 100 µM (inactive); GI50 (HOP-62): > 100 µM (inactive); GI50 (UO-31): > 100 µM (inactive); GI50 (HCC 2998): > 100 µM (inactive); GI50 (NCI-H23): > 100 µM (inactive); GI50 (NCI-H522): > 100 µM (inactive); GI50 (EKVX): > 100 µM (inactive); GI50 (NCI-H460): > 100 µM (inactive); GI50 (K562): > 100 µM (inactive); GI50 (SK-MEL-5): > 100 µM (inactive); GI50 (SW-620): > 100 µM (inactive); GI50 (A549): > 100 µM (inactive); GI50 (MDA-N): > 100 µM (inactive); GI50 (IGROV-1): > 100 µM (inactive); GI50 (OVCAR-3): > 100 µM (inactive)

**Q.** For Clc1cccc(-c2sc(-c3ccsc3)cc2Cc2ccsc2)c1, which GI50 (HT-29) is on record?
**A.** > 10 µM (inactive)

**Q.** And the GI50 (SK-OV-3)?
**A.** > 10 µM (inactive)

**Q.** And the GI50 (SF-268)?
**A.** > 10 µM (inactive)

**Q.** What about the GI50 (HOP-62) of the same compound?
**A.** > 10 µM (inactive)

**Q.** What about the GI50 (HCC 2998) of the same compound?
**A.** > 10 µM (inactive)

**Q.** And the GI50 (NCI-H23)?
**A.** > 10 µM (inactive)

**Q.** What about the GI50 (EKVX) of the same compound?
**A.** > 10 µM (inactive)

**Q.** And the GI50 (K562)?
**A.** > 10 µM (inactive)

**Q.** What about the GI50 (SK-MEL-5) of the same compound?
**A.** > 10 µM (inactive)

**Q.** And the GI50 (SW-620)?
**A.** > 10 µM (inactive)

**Q.** And the GI50 (HL-60)?
**A.** > 10 µM (inactive)

**Q.** What about the GI50 (A549) of the same compound?
**A.** > 10 µM (inactive)

**Q.** And the GI50 (MDA-N)?
**A.** > 10 µM (inactive)

**Q.** What about the GI50 (IGROV-1) of the same compound?
**A.** > 10 µM (inactive)

**Q.** What does the source list for O=C1c2cc(I)ccc2N2CCN=C2N1Cc1ccccc1?
**A.** GI50 (HT-29): > 100 µM (inactive); GI50 (SK-OV-3): 47.4 µM (inactive); GI50 (SF-539): 37.5 µM (inactive); GI50 (SF-268): > 100 µM (inactive); GI50 (HOP-62): > 100 µM (inactive); GI50 (UO-31): 57.4 µM (inactive); GI50 (NCI-H23): > 100 µM (inactive); GI50 (NCI-H522): > 100 µM (inactive); GI50 (EKVX): 22.1 µM (inactive); GI50 (NCI-H460): > 100 µM (inactive); GI50 (K562): > 100 µM (inactive); GI50 (SK-MEL-5): > 100 µM (inactive); GI50 (Hs-578T): 72.1 µM (inactive); GI50 (SW-620): > 100 µM (inactive); GI50 (HL-60): 0.551 µM (active); GI50 (A549): > 100 µM (inactive); GI50 (IGROV-1): > 100 µM (inactive); GI50 (OVCAR-3): > 100 µM (inactive)

**Q.** Which GI50 (HT-29) does the source give for O=C(O)c1ccccc1C(=O)Nn1cnnc1 here?
**A.** > 100 µM (inactive)

**Q.** What about the GI50 (SK-OV-3) of the same compound?
**A.** > 100 µM (inactive)

**Q.** What about the GI50 (SF-539) of the same compound?
**A.** > 100 µM (inactive)

**Q.** And the GI50 (SF-268)?
**A.** > 100 µM (inactive)

**Q.** And the GI50 (HOP-62)?
**A.** > 100 µM (inactive)

**Q.** And the GI50 (UO-31)?
**A.** > 100 µM (inactive)

**Q.** And the GI50 (HCC 2998)?
**A.** > 100 µM (inactive)

**Q.** What about the GI50 (NCI-H23) of the same compound?
**A.** > 100 µM (inactive)

**Q.** And the GI50 (NCI-H522)?
**A.** > 100 µM (inactive)

**Q.** And the GI50 (EKVX)?
**A.** > 100 µM (inactive)

**Q.** What about the GI50 (K562) of the same compound?
**A.** > 100 µM (inactive)

**Q.** What about the GI50 (SK-MEL-5) of the same compound?
**A.** > 100 µM (inactive)

**Q.** What about the GI50 (SW-620) of the same compound?
**A.** > 100 µM (inactive)

**Q.** What about the GI50 (A549) of the same compound?
**A.** > 100 µM (inactive)

**Q.** And the GI50 (MDA-N)?
**A.** > 100 µM (inactive)

**Q.** And the GI50 (IGROV-1)?
**A.** > 100 µM (inactive)

**Q.** What about the GI50 (OVCAR-3) of the same compound?
**A.** > 100 µM (inactive)
